In US20200316113A1, “USE OF COMPOSITION COMPRISING FERROUS AMINO ACID CHELATE IN MANUFACTURE OF MEDICAMENT FOR INHIBITING ANGIOGENESIS” (PROFEAT BIOTECHNOLOGY CO., LTD., priority 2017, published 2020):

Test system: human umbilical vein endothelial cells (HUVECs)
Assay: MTT assay, effect of VEGF and Composition A1 on cell proliferation
Assay type: cell-based
Details: 0, 24, 48 and 72 hours, control group as basis
Experimental: Recombinant human vascular endothelial growth factor (VEGF) was purchased from R&D systems; Cat No. 293-VE. The HUVECs were used in the experiments. The cells were seeded in a 24-well plate at a density of 2×10^4 cells/well. The experiments include control group (not treated with VEGF) and the groups respectively treated with 1 ng/mL VEGF, 5 ng/mL VEGF, 10 ng/mL VEGF and 20 ng/mL VEGF for 0 hour, 24 hours, 48 hours and 72 hours. Each group was triplicated. The MTT assays were performed and values of OD 565 were measured in order to observe the effect of VEGF on cell growth.

VEGF
cell number / cell proliferation of HUVEC (OD 565, MTT) (1 ng/mL VEGF): not significant | cell number / cell proliferation of HUVEC (OD 565, MTT) (5 ng/mL VEGF): not significant | cell number / cell proliferation of HUVEC (OD 565, MTT) (10 ng/mL VEGF): increased | cell number / cell proliferation of HUVEC (OD 565, MTT) (20 ng/mL VEGF): increased
